Test results taken from ChEMBL document CHEMBL5236606, “Synthesis, Structure-Activity Relationships, and In Vivo Evaluation of Novel C-17 Amine Derivatives Based on GSK3640254 as HIV-1 Maturation Inhibitors with Broad Spectrum Activity” (J Med Chem, 2022).
Converted amounts (≈) assume the structure as drawn.

Columns and labels:
[1] = Protein binding in human plasma by ultracentrifugation method; assay type: ADME, cell-free; details: read-out: PPB
[2] = Fold resistance, ratio of EC50 for antiviral activity against wild type HIV-1 NLRepRlucP373S infected in human MT2 cells assessed as inhibition of viral growth in presence of 10% FBS and 40% human serum supplemented with 27mg/mL of human serum albumin to EC50 for antiviral activity against wild type HIV-1 NLRepRlucP373S infected in human MT2 cells assessed as inhibition of viral growth; assay type: functional, Human immunodeficiency virus 1
[3] = Solubility of the compound in FeSSIF at pH 5.0; assay type: ADME
[4] = tested on: Human immunodeficiency virus 1; assay: Antiviral activity against wild type HIV-1 NLRepRlucP373S harboring V362I/V370A mutant infected in human MT2 cells assessed as inhibition of viral growth measured after 4 to 5 days by Dual luciferase reporter assay; assay type: functional, organism-based; details: Human immunodeficiency virus 1, NLRepRlucP373S
[5] = Half life in Sprague-Dawley rat at 1 mg/kg, iv by LC-MS/MS analysis; assay type: ADME, organism-based; details: in vivo
[6] = target: Albumin (Homo sapiens, UniProt P02768); assay: Protein binding in human serum albumin assessed as fraction bound at 53 nM incubated for 1 hrs by ultracentrifugation method; assay type: ADME, cell-free; details: read-out: PPB (converted)
Sequence of Albumin (P02768 whole entry): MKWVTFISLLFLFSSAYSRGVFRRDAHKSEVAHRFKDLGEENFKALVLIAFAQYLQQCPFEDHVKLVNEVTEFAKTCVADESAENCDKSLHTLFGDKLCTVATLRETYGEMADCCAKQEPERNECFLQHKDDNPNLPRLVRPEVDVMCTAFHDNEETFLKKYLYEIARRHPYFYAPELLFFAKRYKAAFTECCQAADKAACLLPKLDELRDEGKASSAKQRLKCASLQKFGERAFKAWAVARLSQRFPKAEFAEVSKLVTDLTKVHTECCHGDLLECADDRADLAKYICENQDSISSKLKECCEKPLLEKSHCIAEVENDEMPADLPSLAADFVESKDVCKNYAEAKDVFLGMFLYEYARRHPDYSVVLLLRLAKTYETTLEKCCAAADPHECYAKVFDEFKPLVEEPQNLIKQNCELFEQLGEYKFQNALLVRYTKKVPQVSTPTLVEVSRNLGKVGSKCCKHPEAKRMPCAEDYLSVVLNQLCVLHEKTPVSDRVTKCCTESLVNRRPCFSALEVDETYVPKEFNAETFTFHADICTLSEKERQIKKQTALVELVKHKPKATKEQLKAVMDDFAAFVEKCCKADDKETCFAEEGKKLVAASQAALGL

[7] = tested on: Human immunodeficiency virus 1; assay: Antiviral activity against wild type HIV-1 NLRepRlucP373S harboring deltaV370 mutant infected in human MT2 cells assessed as inhibition of viral growth measured after 4 to 5 days by Dual luciferase reporter assay; assay type: functional, organism-based; details: Human immunodeficiency virus 1, NLRepRlucP373S
[8] = Metabolic stability in dog liver microsomes assessed as half life at 0.5 uM in presence of NADPH by LC-MS/MS analysis; assay type: ADME, Canis lupus familiaris, Microsome
[9] = MRT in Sprague-Dawley rat at 1 mg/kg, iv by LC-MS/MS analysis; assay type: ADME, organism-based; details: in vivo
[10] = tested on: Human immunodeficiency virus 1; assay: Antiviral activity against wild type HIV-1 NLRepRlucP373S harboring T332S/V362I/prR41G mutant infected in human MT2 cells assessed as inhibition of viral growth measured after 4 to 5 days by Dual luciferase reporter assay; assay type: functional, organism-based; details: Human immunodeficiency virus 1, NLRepRlucP373S
[11] = Cmax in Sprague-Dawley rat at 5 mg/kg, po by LC-MS/MS analysis; assay type: ADME, organism-based; design: dose 5 mg/kg, route po; details: in vivo
[12] = AUCt in Sprague-Dawley rat at 5 mg/kg, po by LC-MS/MS analysis; assay type: ADME, organism-based; design: dose 5 mg/kg, route po; details: in vivo
[13] = tested on: Human immunodeficiency virus 1; assay: Antiviral activity against wild type HIV-1 NLRepRlucP373S infected in human MT2 cells assessed as inhibition of viral growth measured after 4 to 5 days by Dual luciferase reporter assay; assay type: functional, organism-based; details: Human immunodeficiency virus 1, NLRepRlucP373S
[14] = Oral bioavailability in Sprague-Dawley rat at 5 mg/kg by LC-MS/MS analysis; assay type: ADME, organism-based; details: in vivo
[15] = tested on: Human immunodeficiency virus 1; assay: Antiviral activity against wild type HIV-1 NLRepRlucP373S harboring A326T/V362I/V370A mutant infected in human MT2 cells assessed as inhibition of viral growth measured after 4 to 5 days by Dual luciferase reporter assay; assay type: functional, organism-based; details: Human immunodeficiency virus 1, NLRepRlucP373S
[16] = Metabolic stability in rat liver microsomes assessed as half life at 0.5 uM in presence of NADPH by LC-MS/MS analysis; assay type: ADME, Microsome
[17] = Solubility of compound in FaSSIF at pH 6.5; assay type: ADME
[18] = Cytotoxicity against human MT2 cells assessed as reduction in cell viability; assay type: toxicity, cell-based
[19] = tested on: Human immunodeficiency virus 1; assay: Antiviral activity against wild type HIV-1 NLRepRlucP373S harboring R361K/V362I/L363M mutant infected in human MT2 cells assessed as inhibition of viral growth measured after 4 to 5 days by Dual luciferase reporter assay; assay type: functional, organism-based; details: Human immunodeficiency virus 1, NLRepRlucP373S
[20] = Clearance in Sprague-Dawley rat at 1 mg/kg, iv by LC-MS/MS analysis; assay type: ADME, organism-based; details: in vivo
[21] = Volume of distribution at steady state in Sprague-Dawley rat at 1 mg/kg, iv by LC-MS/MS analysis; assay type: ADME, organism-based; details: in vivo, read-out: Vdss
[22] = Metabolic stability in human liver microsomes assessed as half life at 0.5 uM in presence of NADPH by LC-MS/MS analysis; assay type: ADME, Microsome
[23] = tested on: Human immunodeficiency virus 1; assay: Antiviral activity against wild type HIV-1 NLRepRlucP373S infected in human MT2 cells assessed as inhibition of viral growth measured after 4 to 5 days in presence of 10% FBS and 40% human serum supplemented with 27 mg/mL of human serum albumin by Dual luciferase reporter assay; assay type: functional, organism-based; details: Human immunodeficiency virus 1, NLRepRlucP373S
[24] = Cmax in Beagle dog at 5 mg/kg, po administered as solution in 98% citrate buffer/2% sulfobutylether-beta-cyclodextrin by LC-MS/MS analysis; assay type: ADME, organism-based, Canis lupus familiaris; design: dose 5 mg/kg, route po; details: in vivo
[25] = MRT in Beagle dog at 1 mg/kg, iv by LC-MS/MS analysis; assay type: ADME, organism-based, Canis lupus familiaris; details: in vivo
[26] = Clearance in Beagle dog at 1 mg/kg, iv by LC-MS/MS analysis; assay type: ADME, organism-based, Canis lupus familiaris; details: in vivo
[27] = AUCt in Beagle dog at 5 mg/kg, po administered as solution in 98% citrate buffer/2% sulfobutylether-beta-cyclodextrin by LC-MS/MS analysis; assay type: ADME, organism-based, Canis lupus familiaris; design: dose 5 mg/kg, route po; details: in vivo
[28] = Oral bioavailability in Beagle dog at 5 mg/kg administered as solution in 98% citrate buffer/2% sulfobutylether-beta-cyclodextrin by LC-MS/MS analysis; assay type: ADME, organism-based, Canis lupus familiaris; details: in vivo
[29] = Oral bioavailability in Beagle dog at 5 mg/kg administered as spray-dried dispersion in 99.5% water/0.5% methocel E4M by LC-MS/MS analysis; assay type: ADME, organism-based, Canis lupus familiaris; details: in vivo
[30] = tested on: Human immunodeficiency virus 1; assay: Antiviral activity against wild type HIV-1 NLRepRlucP373S harboring V370A mutant infected in human MT2 cells assessed as inhibition of viral growth measured after 4 to 5 days by Dual luciferase reporter assay; assay type: functional, organism-based; details: Human immunodeficiency virus 1, NLRepRlucP373S
[31] = Half life in Beagle dog at 1 mg/kg, iv by LC-MS/MS analysis; assay type: ADME, organism-based, Canis lupus familiaris; details: in vivo
[32] = Cmax in Beagle dog at 5 mg/kg, po administered as spray-dried dispersion in 99.5% water/0.5% methocel E4M by LC-MS/MS analysis; assay type: ADME, organism-based, Canis lupus familiaris; design: dose 5 mg/kg, route po; details: in vivo
[33] = AUCt in Beagle dog at 5 mg/kg, po administered as spray-dried dispersion in 99.5% water/0.5% methocel E4M by LC-MS/MS analysis; assay type: ADME, organism-based, Canis lupus familiaris; design: dose 5 mg/kg, route po; details: in vivo
[34] = Volume of distribution at steady state in Beagle dog at 1 mg/kg, iv by LC-MS/MS analysis; assay type: ADME, organism-based, Canis lupus familiaris; details: in vivo, read-out: Vdss

SMILES	fold change (FC) [2]	solubility [3]	EC50 [4]	half-life [5]	fraction unbound at 1 h, 0.053 µM [6]	EC50 [7]	half-life at 0.5 µM [8]	MRT [9]	EC50 [10]	Cmax [11]	AUC(0-t) [12]	EC50 [13]	bioavailability [14]	EC50 [15]	half-life at 0.5 µM [16]	solubility [17]	CC50 [18]	EC50 [19]	clearance [20]	Vd [21]	also measured
C=C(C)[C@@H]1CC[C@]2(C(=O)O)CC[C@]3(C)[C@H](CC[C@@H]4[C@@]5(C)CC[C@H](OC(=O)CC(C)(C)C(=O)O)C(C)(C)[C@@H]5CC[C@]43C)[C@@H]12 [BEVIRIMAT]	97																				fraction unbound [1]: < 0.001
C=C(C)[C@@H]1CC[C@]2(NCC[C@]3(O)CC[C@](C)(O)CC3)CC[C@]3(C)[C@H](CC[C@@H]4[C@@]5(C)CC=C(C6=CC[C@](CF)(C(=O)O)CC6)C(C)(C)[C@@H]5CC[C@]43C)[C@@H]12	6.3	> 480 µM	3.8 nM	3.9 h	0.11	6 nM	> 2 h	3.6 h	8.1 nM	720 nM	6.19 µM·h	2.1 nM	20%	8 nM	> 2 h	< 1 µM	16000 nM	5.1 nM	3.7 mL/min/kg	0.8 L/kg	half-life at 0.5 µM [22]: > 2 h; EC50 [23]: 13 nM
C=C(C)[C@@H]1CC[C@]2(NCC[C@]3(O)CC[C@@H](S(C)(=O)=O)CC3)CC[C@]3(C)[C@H](CC[C@@H]4[C@@]5(C)CC=C(C6=CC[C@](CF)(C(=O)O)CC6)C(C)(C)[C@@H]5CC[C@]43C)[C@@H]12	5.8	> 700 µM	2 nM	4.2 h	0.11	5.1 nM	> 2 h	3.8 h	6.4 nM	830 nM	8.11 µM·h	1.6 nM	24%	4.3 nM	1.42 h	21 µM (≈ 16.2 µg/mL)	21000 nM	4.5 nM	3.5 mL/min/kg	0.8 L/kg	Cmax [24]: 1610 nM; MRT [25]: 13.2 h; clearance [26]: 0.38 mL/min/kg; AUC(0-t) [27]: 23.3 µM·h; bioavailability [28]: 21%; bioavailability [29]: 31%; EC50 [30]: 3 nM; half-life [31]: 13.4 h; Cmax [32]: 1960 nM; AUC(0-t) [33]: 35.3 µM·h; Vd [34]: 0.31 L/kg; half-life at 0.5 µM [22]: 1.38 h; EC50 [23]: 9.3 nM
C=C(C)[C@@H]1CC[C@]2(C(=O)NCCOC)CC[C@]3(C)[C@H](CC[C@@H]4[C@@]5(C)CC=C(c6ccc(C(=O)O)cc6)C(C)(C)[C@@H]5CC[C@]43C)[C@@H]12																					EC50 [30]: 152 nM
C=C(C)[C@@H]1CC[C@]2(NCCC3(O)COC3)CC[C@]3(C)[C@H](CC[C@@H]4[C@@]5(C)CC=C(C6=CC[C@](CF)(C(=O)O)CC6)C(C)(C)[C@@H]5CC[C@]43C)[C@@H]12	10	32 µM (≈ 21.3 µg/mL)	4.1 nM	3.6 h	0.12	5.3 nM	> 2 h	2.7 h	7 nM	3860 nM	27.3 µM·h	1.7 nM	140%	6.6 nM	1.33 h	4 µM (≈ 2.66 µg/mL)	18000 nM	6.1 nM	6.5 mL/min/kg	1 L/kg	half-life at 0.5 µM [22]: > 2 h; EC50 [23]: 17 nM
C=C(C)[C@@H]1CC[C@]2(C(=O)NCCO)CC[C@]3(C)[C@H](CC[C@@H]4[C@@]5(C)CC=C(c6ccc(C(=O)O)cc6)C(C)(C)[C@@H]5CC[C@]43C)[C@@H]12						> 2000 nM															EC50 [30]: 41 nM
